Laboratory results reported in patent publication US20250163104A1, “MACROCYCLIC IMMUNOMODULATORS” (priority 2021, published 2025).
pIC50: −log10 of the molar value. Where a SMILES comes first, the peptide text is derived from it. Bridges are numbered along the chain shown (N, C = ends). [ ]: non-standard residue; d: D form. The star is where a group is joined. ξ: configuration not given here. Phe(4-COOH) = N[C@@H](Cc1ccc(C(=O)O)cc1)C(=O)O; Bip = N[C@@H](Cc1ccc(-c2ccccc2)cc1)C(=O)O; Gly(cPent) = N[C@H](C(=O)O)C1CCCC1; 4Pal = N[C@@H](Cc1ccncc1)C(=O)O; Cha = N[C@@H](CC1CCCCC1)C(=O)O; Ile(3ξ) = CCC(C)[C@H](N)C(=O)O; Thr(3ξ) = CC(O)[C@H](N)C(=O)O; Ala(CN) = N#CC[C@H](N)C(=O)O; Carboxymethyl = O=C(O)C*; Orn = NCCC[C@H](N)C(=O)O; Dab = NCC[C@H](N)C(=O)O; Sar = CNCC(=O)O

The molecules below were run against T1, human PD-1 / PD-L1-Ig binding on Jurkat cell line over-expressing human PD-1 (Jurkat-PD-1) (Homo sapiens, UniProt Q15116) (assay: Jurkat-PD-1 Cell Binding High-Content Screening Assay (CBA)). Conditions: Jurkat HPD1_PDL1 IC50, Jurkat-PD-1 cells, PE-labeled PD-L1-Ig 20 nM final.
T1 construct: expressed in transfected cells; host or cells: Jurkat
T1 sequence (Q15116 25-288): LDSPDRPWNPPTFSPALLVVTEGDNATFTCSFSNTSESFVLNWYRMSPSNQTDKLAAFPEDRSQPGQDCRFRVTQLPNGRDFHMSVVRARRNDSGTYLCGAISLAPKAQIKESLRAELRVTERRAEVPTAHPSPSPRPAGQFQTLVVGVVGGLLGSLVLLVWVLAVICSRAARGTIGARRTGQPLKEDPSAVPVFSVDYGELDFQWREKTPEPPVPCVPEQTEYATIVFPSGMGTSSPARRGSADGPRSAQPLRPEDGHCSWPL
Type: cell-based
Summary of the method: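 Jurkat cells over-expressing human PD-1, in DMEM/10% FCS, pre-incubated with compound 2 h at 37° C. PE-labeled human PD-L1-Ig (20 nM final) added for 1 h; cells fixed in paraformaldehyde with Hoechst 33342 nuclear stain, washed, and bound fluorescence quantified by high-content imaging.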

Structure (SMILES) | pIC50
CC(C)C[C@H]1NC(=O)[C@H](CCCN)NC(=O)[C@H](C(C)C)NC(=O)[C@H](Cc2ccc(-c3ccccc3)cc2)NC(=O)[C@H](C(C)C)NC(=O)[C@H](Cc2c[nH]c3ccccc23)NC(=O)[C@H](CC(=O)O)NC(=O)[C@H](Cc2ccc(C(=O)O)cc2)NC(=O)[C@H](Cc2ccc(OCC(=O)O)cc2)NC(=O)CSC[C@@H](C(=O)N[C@@H](CCN)C(=O)N[C@@H](CCCNC(=N)N)C(=O)O)NC(=O)[C@H](CO)NC(=O)[C@H](C(C)C)NC(=O)[C@H](CC2CCCCC2)NC(=O)[C@H](CCN)NC1=O [Compound 2586] ({CH2CO}-Y(Carboxymethyl)[Phe(4-COOH)]DWV[Bip]V[Orn][dL][Dab][Cha]VSC[Dab]R-OH; thioether N-14) | 8.00
CC(C)C[C@H]1NC(=O)[C@H](CCCN)NC(=O)[C@H](C(C)C)NC(=O)[C@H](Cc2ccc(-c3ccccc3)cc2)NC(=O)[C@H](C(C)C)NC(=O)[C@H](Cc2c[nH]c3ccccc23)NC(=O)[C@H](CC(=O)O)NC(=O)[C@H](Cc2ccc(C(=O)O)cc2)NC(=O)[C@H](Cc2ccc(OCC(=O)O)cc2)NC(=O)CSC[C@@H](C(=O)N[C@@H](CCN)C(=O)N[C@@H](CCCNC(=N)N)C(=O)O)NC(=O)[C@H](CCCN)NC(=O)[C@H](C(C)C)NC(=O)[C@H](CC2CCCCC2)NC(=O)[C@H](CCN)NC1=O [Compound 2587] ({CH2CO}-Y(Carboxymethyl)[Phe(4-COOH)]DWV[Bip]V[Orn][dL][Dab][Cha]V[Orn]C[Dab]R-OH; thioether N-14) | 7.74

Same assay, conditions: Jurkat-PD-1 cells, PE-labeled PD-L1-Ig 20 nM final; read-out: Jurkat HPD1_PDL1 IC50

pIC50 | Structure (SMILES)
6.79 | CCC(C)[C@@H]1NC(=O)[C@H](Cc2c[nH]c3ccccc23)NC(=O)[C@H](CC(=O)O)NC(=O)[C@H](Cc2ccc(OCC(=O)O)cc2)NC(=O)[C@H](C(C)O)NC(=O)CSC[C@@H](C(=O)N[C@@H](CC(N)=O)C(=O)O)NC(=O)[C@H](CO)NC(=O)[C@H](C(C)C)NC(=O)[C@H](CC(C)C)NC(=O)[C@H](CCN)NC(=O)[C@@H](CC(C)C)NC(=O)[C@H](CCCN)NC(=O)[C@H](C(C)CC)NC(=O)[C@H](Cc2ccc(-c3ccccc3)cc2)NC1=O (stereo partly drawn) [Compound 2573] ({CH2CO}-[Thr(3ξ)]Y(Carboxymethyl)DW[Ile(3ξ)][Bip][Ile(3ξ)][Orn][dL][Dab]LVSCN-OH; thioether N-14)
6.88 | CCC(C)[C@@H]1NC(=O)[C@H](Cc2ccc(-c3ccccc3)cc2)NC(=O)[C@H](Cc2ccccc2)NC(=O)[C@H](Cc2c[nH]c3ccccc23)NC(=O)[C@H](CC(=O)O)NC(=O)[C@H](Cc2ccc(OCC(=O)O)cc2)NC(=O)[C@H](C(C)O)NC(=O)CSC[C@@H](C(=O)N[C@@H](CC(N)=O)C(=O)O)NC(=O)[C@H](CO)NC(=O)[C@H](C(C)C)NC(=O)[C@H](CC(C)C)NC(=O)[C@H](CCN)NC(=O)[C@@H](CC(C)C)NC(=O)[C@H](CCCN)NC1=O (stereo partly drawn) [Compound 2574] ({CH2CO}-[Thr(3ξ)]Y(Carboxymethyl)DWF[Bip][Ile(3ξ)][Orn][dL][Dab]LVSCN-OH; thioether N-14)
7.22 | CCC(C)[C@@H]1NC(=O)[C@H](Cc2ccc(-c3ccccc3)cc2)NC(=O)[C@H](CC2CCCCC2)NC(=O)[C@H](Cc2c[nH]c3ccccc23)NC(=O)[C@H](CC(=O)O)NC(=O)[C@H](Cc2ccc(OCC(=O)O)cc2)NC(=O)[C@H](C(C)O)NC(=O)CSC[C@@H](C(=O)N[C@@H](CC(N)=O)C(=O)O)NC(=O)[C@H](CO)NC(=O)[C@H](C(C)C)NC(=O)[C@H](CC(C)C)NC(=O)[C@H](CCN)NC(=O)[C@@H](CC(C)C)NC(=O)[C@H](CCCN)NC1=O (stereo partly drawn) [Compound 2575] ({CH2CO}-[Thr(3ξ)]Y(Carboxymethyl)DW[Cha][Bip][Ile(3ξ)][Orn][dL][Dab]LVSCN-OH; thioether N-14)
7.91 | CCC(C)[C@@H]1NC(=O)[C@H](Cc2ccc(-c3ccccc3)cc2)NC(=O)[C@H](CC(C)C)NC(=O)[C@H](Cc2c[nH]c3ccccc23)NC(=O)[C@H](CC(=O)O)NC(=O)[C@H](Cc2ccc(OCC(=O)O)cc2)NC(=O)[C@H](Cc2ccc(OCC(=O)O)cc2)NC(=O)CSC[C@@H](C(=O)N[C@@H](CC(N)=O)C(=O)O)NC(=O)[C@H](CO)NC(=O)[C@H](C(C)C)NC(=O)[C@H](CC(C)C)NC(=O)[C@H](CCN)NC(=O)[C@@H](CC(C)C)NC(=O)[C@H](CCCN)NC1=O (stereo partly drawn) [Compound 2576] ({CH2CO}-Y(Carboxymethyl)Y(Carboxymethyl)DWL[Bip][Ile(3ξ)][Orn][dL][Dab]LVSCN-OH; thioether N-14)
7.88 | CCC(C)[C@@H]1NC(=O)[C@H](Cc2ccc(-c3ccccc3)cc2)NC(=O)[C@H](CC(C)C)NC(=O)[C@H](Cc2c[nH]c3ccccc23)NC(=O)[C@H](CC(=O)O)NC(=O)[C@H](Cc2ccc(OCC(=O)O)cc2)NC(=O)[C@H](C(C)O)NC(=O)CSC[C@@H](C(=O)N[C@@H](CC(N)=O)C(=O)O)NC(=O)[C@H](CO)NC(=O)[C@H](C(C)C)NC(=O)[C@H](CC(C)C)NC(=O)[C@H](CCN)NC(=O)[C@@H](CC(C)C)NC(=O)[C@H](CCCN)NC1=O (stereo partly drawn) [Compound 2577] ({CH2CO}-[Thr(3ξ)]Y(Carboxymethyl)DWL[Bip][Ile(3ξ)][Orn][dL][Dab]LVSCN-OH; thioether N-14)

Same assay, conditions: read-out: Jurkat HPD1_PDL1 IC50; Jurkat-PD-1 cells, PE-labeled PD-L1-Ig 20 nM final

Structure (SMILES) | pIC50
CCC(C)[C@@H]1NC(=O)[C@H](Cc2ccc(-c3ccccc3)cc2)NC(=O)[C@H](C2CCCC2)NC(=O)[C@H](Cc2c[nH]c3ccccc23)NC(=O)[C@H](CC(=O)O)NC(=O)[C@H](Cc2ccc(OCC(=O)O)cc2)NC(=O)[C@H](C(C)O)NC(=O)CSC[C@@H](C(=O)N[C@@H](CC(N)=O)C(=O)O)NC(=O)[C@H](CO)NC(=O)[C@H](C(C)C)NC(=O)[C@H](CC(C)C)NC(=O)[C@H](CCN)NC(=O)[C@@H](CC(C)C)NC(=O)[C@H](CCCN)NC1=O (stereo partly drawn) [Compound 2578] ({CH2CO}-[Thr(3ξ)]Y(Carboxymethyl)DW[Gly(cPent)][Bip][Ile(3ξ)][Orn][dL][Dab]LVSCN-OH; thioether N-14) | 7.61
CCC(C)[C@@H]1NC(=O)[C@H](Cc2ccc(-c3ccccc3)cc2)NC(=O)[C@H](CC#N)NC(=O)[C@H](Cc2c[nH]c3ccccc23)NC(=O)[C@H](CC(=O)O)NC(=O)[C@H](Cc2ccc(OCC(=O)O)cc2)NC(=O)[C@H](C(C)O)NC(=O)CSC[C@@H](C(=O)N[C@@H](CC(N)=O)C(=O)O)NC(=O)[C@H](CO)NC(=O)[C@H](C(C)C)NC(=O)[C@H](CC(C)C)NC(=O)[C@H](CCN)NC(=O)[C@@H](CC(C)C)NC(=O)[C@H](CCCN)NC1=O (stereo partly drawn) [Compound 2579] ({CH2CO}-[Thr(3ξ)]Y(Carboxymethyl)DW[Ala(CN)][Bip][Ile(3ξ)][Orn][dL][Dab]LVSCN-OH; thioether N-14) | 6.82
CCC(C)[C@@H]1NC(=O)[C@H](Cc2ccc(-c3ccccc3)cc2)NC(=O)[C@H](Cc2c[nH]cn2)NC(=O)[C@H](Cc2c[nH]c3ccccc23)NC(=O)[C@H](CC(=O)O)NC(=O)[C@H](Cc2ccc(OCC(=O)O)cc2)NC(=O)[C@H](C(C)O)NC(=O)CSC[C@@H](C(=O)N[C@@H](CC(N)=O)C(=O)O)NC(=O)[C@H](CO)NC(=O)[C@H](C(C)C)NC(=O)[C@H](CC(C)C)NC(=O)[C@H](CCN)NC(=O)[C@@H](CC(C)C)NC(=O)[C@H](CCCN)NC1=O (stereo partly drawn) [Compound 2580] ({CH2CO}-[Thr(3ξ)]Y(Carboxymethyl)DWH[Bip][Ile(3ξ)][Orn][dL][Dab]LVSCN-OH; thioether N-14) | 7.35
CCC(C)[C@@H]1NC(=O)[C@H](Cc2ccc(-c3ccccc3)cc2)NC(=O)[C@H](CO)NC(=O)[C@H](Cc2c[nH]c3ccccc23)NC(=O)[C@H](CC(=O)O)NC(=O)[C@H](Cc2ccc(OCC(=O)O)cc2)NC(=O)[C@H](C(C)O)NC(=O)CSC[C@@H](C(=O)N[C@@H](CC(N)=O)C(=O)O)NC(=O)[C@H](CO)NC(=O)[C@H](C(C)C)NC(=O)[C@H](CC(C)C)NC(=O)[C@H](CCN)NC(=O)[C@@H](CC(C)C)NC(=O)[C@H](CCCN)NC1=O (stereo partly drawn) [Compound 2581] ({CH2CO}-[Thr(3ξ)]Y(Carboxymethyl)DWS[Bip][Ile(3ξ)][Orn][dL][Dab]LVSCN-OH; thioether N-14) | 6.33
CCC(C)[C@@H]1NC(=O)[C@H](Cc2ccc(-c3ccccc3)cc2)NC(=O)[C@H](CC(C)C)NC(=O)[C@H](Cc2c[nH]c3ccccc23)NC(=O)[C@H](CC(=O)O)NC(=O)[C@H](Cc2ccc(OCC(=O)O)cc2)NC(=O)[C@H](Cc2ccncc2)NC(=O)CSC[C@@H](C(=O)N[C@@H](CC(N)=O)C(=O)O)NC(=O)[C@H](CO)NC(=O)[C@H](C(C)C)NC(=O)[C@H](CC(C)C)NC(=O)[C@H](CCN)NC(=O)[C@@H](CC(C)C)NC(=O)[C@H](CCCN)NC1=O (stereo partly drawn) [Compound 2582] ({CH2CO}-[4Pal]Y(Carboxymethyl)DWL[Bip][Ile(3ξ)][Orn][dL][Dab]LVSCN-OH; thioether N-14) | 8.01
CCC(C)[C@@H]1NC(=O)[C@H](CC2CCCCC2)NC(=O)[C@H](CCN)NC(=O)[C@@H](CC(C)C)NC(=O)[C@H](CCCN)NC(=O)[C@H](C(C)CC)NC(=O)[C@H](Cc2ccc(-c3ccccc3)cc2)NC(=O)[C@H](C(C)CC)NC(=O)[C@H](Cc2c[nH]c3ccccc23)NC(=O)[C@H](CC(=O)O)NC(=O)[C@H](Cc2ccc(OCC(=O)O)cc2)NC(=O)[C@H](C(C)O)NC(=O)CSC[C@@H](C(=O)N2CCC[C@H]2C(N)=O)NC(=O)[C@H](CO)NC1=O (stereo partly drawn) [Compound 2583] ({CH2CO}-[Thr(3ξ)]Y(Carboxymethyl)DW[Ile(3ξ)][Bip][Ile(3ξ)][Orn][dL][Dab][Cha][Ile(3ξ)]SCP-NH2; thioether N-14) | 6.91
CCC(C)[C@@H]1NC(=O)[C@H](CC2CCCCC2)NC(=O)[C@H](CCN)NC(=O)[C@@H](CC(C)C)NC(=O)[C@H](CCCN)NC(=O)[C@H](C(C)CC)NC(=O)[C@H](Cc2ccc(-c3ccccc3)cc2)NC(=O)[C@H](C(C)CC)NC(=O)[C@H](Cc2c[nH]c3ccccc23)NC(=O)[C@H](CC(=O)O)NC(=O)[C@H](Cc2ccc(OCC(=O)O)cc2)NC(=O)[C@H](C(C)O)NC(=O)CSC[C@@H](C(=O)N(C)CC(N)=O)NC(=O)[C@H](CO)NC1=O (stereo partly drawn) [Compound 2584] ({CH2CO}-[Thr(3ξ)]Y(Carboxymethyl)DW[Ile(3ξ)][Bip][Ile(3ξ)][Orn][dL][Dab][Cha][Ile(3ξ)]SC[Sar]-NH2; thioether N-14) | 7.01
